The values below come from US20030139609A1, “Aziridinyl quinone antitumor agents based on indoles and cyclopent[b]indoles” (priority 2001, published 2003).

In one data set the test system is 600 bp calf thymus DNA. Kind of data set: DNA reductive alkylation by catalytically reduced aziridinyl quinones. The data set is classed as biochemical. Particulars: for DNA alkylation percentage: catalytic reduction, anaerobic, pH 7.4 tris buffer, 30° C., 24 h, absorbance at 550 nm. As for the experimental part:
DNA Alkylation Screening of Series 1-9. The extent of DNA reductive alkylation was determined by catalytic reduction of the aziridinyl quinones in the presence of 600 bp calf thymus DNA. Oxidative workup afforded DNA colored blue as a result of the aminoquinone chromophore. […] The anaerobic conditions employed for DNA reductive alkylation assays is not meant to mimic the environment of tumor cells. These conditions do permit an accurate assessment of the structural requirements for DNA alkylation by the hydroquinone species. To be sure, agents incapable of akylating DNA under these ideal conditions will not do so in the typical cellular environment.
Alkylation of DNA by Reduced Indoloquinones. To a mixture of 1-2 mg of sonicated (600 bp) calf thymus DNA in 2.0 mL of 0.05 M of pH 7.4 tris buffer and 2 mg of Pd on carbon was added a five-to-one base pair equivalent amount of the indoloquinone dissolved in 0.5 mL of dimethylsulfoxide. The resulting solution was degassed under argon for 30 min., after which the mixture was purged with H2 for 10 min. The solution was then purged with argon for 10 min. and placed in a 30° C. bath for 24 h. The reaction was opened to the air and the catalyst was removed with a Millex-PF […] syringe filter. The filtrate was adjusted to 0.3 M acetate with a 3 M stock solution of pH 5.1 acetate and then diluted with two volumes of ethanol. The mixture was chilled at −20° C. for 12 h and the DNA pellet collected by centrifuging at 12,000 g for 20 min. The pellet was redissolved in water and then precipitated and centrifuged again. The resulting blue or red pellet was suspended in ethanol, centrifuged, and dried. The dried pellet was weighed and dissolved in 1 mL of double distilled water resulting in a clear colored solution with […]max˜550 nm, □˜750 M^−1 cm^−1. This is the chromophore of the aminoquinone resulting from nucleophile-mediated opening of the aziridine ring. Model 2′-chloroethyl aminoquinones for extinction coefficient determination were prepared by treatment of the indoloquinone with HCl. {Skibo, E. B. and Xing, C., Chemistry and DNA Alkylation Reactions of Aziridinyl Quinones: Development of an Efficient Alkylating Agent of the Phosphate Backbone, Biochemistry, 1998, 37, 15199-15213}.

Data set [1] addresses human DT-diaphorase (from the non-small cell lung NCI-H460 cell line) (Homo sapiens, UniProt P15559). In words: DT-diaphorase substrate kinetics (recombinant enzyme, anaerobic, Lineweaver-Burke). The data set is classed as biochemical. The source says:
Listed in Tables 1-4 are the human DT-diaphorase kinetic parameters for Series 1-9, along with the DNA alkylation percentages. These parameters include the apparent dissociation constant KM, the apparent maximal velocity VMAX, and the substrate specificity, VMAX/KM. The designation “apparent” refers to the present of productive and nonproductive constants in KM and VMAX. {Fersht, A. R., The Hydrogen Bond in Molecular Recognition Trends, Biochem. Sci., 1987, 12, 301-304} These constants cancel in the ratio VMAX/KM, which is the best parameter to compare substrates. Human DT-diaphorase (from the non-small cell lung NCI-H460 cell line) {Beall, H. D., Mulcahy, R. T., Siegel, D., Traver, R D., Gibson, N. W., and Ross, D., Metabolism of Bioreductive Antitumor Compounds by Purified Rat and Human DT-Diaphorase Cancer Res., 1994, 54, 3196-3201 } was used to obtain these kinetic parameters. This enzyme is the same as that present in other human tissues, cancerous or otherwise.
Kinetics Studies using Recombinant DT-diaphorase. Kinetics studies were carried out in 0.05 M pH 7.4 Tris buffer under anaerobic conditions, employing Thunberg cuvettes. […] To calculate Vmax, the value of □□ must be obtained. □□ was calculated from the initial and final absorbances for complete quinone reduction; all values are between 8000 to 9000 M^−1 cm^−1. […]

The subject of data set [2] is NCI-H460 non-small-lung cancer cell line. Kind of data set: NCI In Vitro Cell Line Screening, NSC H460 cell line. The data set is classed as cell-based. The text has this:
Cytotoxic and Cytostatic Screening of Series 1-9.

The test system of data set [3] is National Cancer Institute 60-cell line. In words: NCI 60-cell line in vitro screen (average cytotoxicity and cancer specificity). Here is the method:
Cytotoxic and Cytostatic Screening of Series 1-9. […] The cytostatic parameters include GI50 and TGI, which are the concentrations of drug required for 50% growth inhibition and total growth inhibition, respectively. The cytotoxic parameter is the LC50, which is the concentration required for 50% cell kill.
4. […] Cancer specificity is measured from the ± value under the “Average Log LC50 60-Cell Line” heading of Table 5. A ± value greater than 2 indicates a greater than 100-fold higher/lower cytotoxicity in some histological cancer types compared to the mean cytotoxicity.
The DT-diaphorase levels in the National Cancer Institute 60-cell line in vitro screen have been determined and correlated with the cytotoxicity of antitumor agents activated by 2-electron reduction. {Fitzsimmons, S. A., Workman, P., Grever, M., Paull, K., Camalier, R., and Lewis, A. D., Reductase Enzyme Expression Across the National Cancer Institute Tumor Cell Line Panel: Correlation with Sensitivity To Mitomycin C and EO9, J. Natl. Cancer Inst., 1996, 88, 259-69}. Sensitive cancers usually include NSC lung and colon cancers (and to a lesser extent CNS, melanoma, and renal cancers) by virtue of their elevated DT-diaphorase levels.

Each structure is given as a SMILES string.

Sequence of human DT-diaphorase (from the non-small cell lung NCI-H460 cell line) (P15559 whole entry): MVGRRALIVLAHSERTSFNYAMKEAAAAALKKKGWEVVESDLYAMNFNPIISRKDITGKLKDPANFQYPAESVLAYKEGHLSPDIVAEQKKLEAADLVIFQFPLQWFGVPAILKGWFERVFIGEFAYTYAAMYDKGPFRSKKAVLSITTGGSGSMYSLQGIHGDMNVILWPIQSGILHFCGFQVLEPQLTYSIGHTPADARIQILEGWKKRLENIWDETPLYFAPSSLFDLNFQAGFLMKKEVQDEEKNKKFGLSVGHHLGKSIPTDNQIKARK

By melting point is commonly meant the temperature of the solid-liquid transition. In turn, `CC(=O)OC1CCc2c3c(n(C(C)=O)c21)C(=O)C=C(N1CC1)C3=O` (stereo not shown) [Compound 1c, 7-Aziridinyl-3-acetoxy-4-acetyl-1,2,3,4-tetrahydrocyclopent[b]indole-5,8-dione] gave a melting point of 140 °C.

On to `CC(=O)OC1CCc2c1[nH]c1c2C(=O)C(N2CC2)=CC1=O` (stereo not shown) [Compound 1b, 3-Acetoxy-7-aziridinyl-1,2,3,4-tetrahydrocyclopent[b]indole-5,8-dione], for which the melting point came out at 165 °C. In the data set on 600 bp calf thymus DNA, this molecule yielded a DNA alkylation percentage of 34%.

As to `CC(=O)OC1CCc2c3c(n(C)c21)C(=O)C(N1CC1)=C(C)C3=O` (stereo not shown) [Compound 5b], the melting point is 157 °C.

Usually GI50 stands for the concentration giving 50% growth inhibition. `CCOC(=O)c1[nH]c2c(c1COC(C)=O)C(=O)C(N1CC1)=CC2=O` [Compound 6d, 3-Acetoxymethyl-5-aziridinyl-2-ethoxycarbonylindole-4,7-dione]: the DT-diaphorase specificity in data set [1] worked out at 0.0072 M⁻¹ s⁻¹. In the data set on 600 bp calf thymus DNA, the “% of DNA bases reductively activated” value turned out to be 91.2%, the “DNA alkylation (in words)” value is given as “high DNA alkylation percentages” and the DNA alkylation percentage amounted to 91.2%. For the same molecule, in data set [2] (Homo sapiens, NCI-H460, concentration for 50% growth inhibition, read-out: Log GI50 NSC H460 (converted)), the GI50 was 37.2 nM. Moreover, in data set [2] (Homo sapiens, NCI-H460, read-out: Log LC50 NSC H460, concentration for 50% cell kill (converted)), the CC50 was 603 nM. In addition, the “Log TGI NSC H460” value in data set [2] (concentration for total growth inhibition) was −6.77. Also, the “± value of Average Log LC50 60-Cell Line” value in data set [3] is recorded as around 1. Further, the “Average Log LC50 60-Cell Line” value in data set [3] (mean over 60 cell lines, ± value measures cancer specificity) is given as −5.62 ± 1.05.

Consider `CC(=O)OC1CCc2c1[nH]c1c2C(=O)C(N2CC2)=C(C)C1=O` (stereo not shown) [Compound 2b, 3-Acetoxy-7-aziridinyl-6-methyl-1,2,3,4-tetrahydrocyclopent[b]indole-5,8-dione], for which the melting point was 165 °C. Besides, the DNA alkylation percentage in the data set with 600 bp calf thymus DNA came to 21%.

The molecule `CC(=O)OC1CCc2c3c(n(C(C)=O)c21)C(=O)C(C)=C(N1CC1)C3=O` (stereo not shown) [Compound 2c, 7-Aziridinyl-3-acetoxy-4-acetyl-6-methyl-1,2,3,4-tetrahydrocyclopent[b]indole-5,8-dione] came in with a melting point of 156 °C.

For the molecule `CC1=C(N2CC2)C(=O)c2c(CO)c(CO)n(C)c2C1=O` [Compound 7c, 5-Aziridinyl-2,3-di(hydroxymethyl)-1,6-dimethylindole-4,7-dione], the melting point is 165 °C. In the data set with 600 bp calf thymus DNA, the “DNA alkylation (in words)” value is “complete loss of DNA alkylation” and the DNA alkylation percentage was found to be 0%.
